Laboratory results reported in ChEMBL document CHEMBL1201862, “PubChem BioAssay data set” (2004).
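Where inhibition never reached the appropriate level, the endpoint shown equals the highest concentration tested. Otherwise, values were interpolated linearly from a five-concentration, 48-hour dose response in 96-well plates. GI50 = concentration required for 50% inhibition of growth.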 Calls of active or inactive are those of the source. Cut-off read from the data, not from the text of the source: active = GI50 up to about 1.1 µM and inactive = higher.

Tests used:
Test in all cases: growth of human tumour cells (NCI), 48 h
Hs-578T = test system: Hs-578T
MCF7 = test system: MCF7
HL-60 = test system: HL-60
HCT-116 = test system: HCT-116
RPMI-8226 = test system: RPMI-8226
KM12 = test system: KM12
M14 = test system: M14
ACHN = test system: ACHN
HOP-92 = test system: HOP-92
CAKI-1 = test system: CAKI-1
MOLT-4 = test system: MOLT-4
786-0 = test system: 786-0
COLO 205 = test system: COLO 205
NCI-H23 = test system: NCI-H23
SF-539 = test system: SF-539
SK-MEL-2 = test system: SK-MEL-2
T47D = test system: T47D
NCI-H522 = test system: NCI-H522
SF-295 = test system: SF-295
SK-OV-3 = test system: SK-OV-3

Measured: GI50

O=C1CSC2(CC(/C=C/c3ccccc3[N+](=O)[O-])=NN2c2cccc(S(=O)(=O)O)c2)N1c1nc2ccccc2s1 (centres undefined)
inactive: Hs-578T 22.3 µM | MCF7 12.5 µM | HL-60 21.7 µM | HCT-116 21.3 µM | RPMI-8226 16.8 µM | KM12 15.5 µM | M14 20.7 µM | ACHN 17.1 µM | HOP-92 25.5 µM | CAKI-1 32.7 µM | MOLT-4 15.7 µM | 786-0 12.3 µM | COLO 205 33.1 µM | NCI-H23 16.9 µM | SF-539 23.5 µM | SK-MEL-2 15.2 µM | T47D 12.8 µM | NCI-H522 11.6 µM

COC(=O)C1(SC)C2CCC3C2CCC31 (centres undefined)
inactive: SF-295 > 100 µM | Hs-578T > 100 µM | MCF7 > 100 µM | HL-60 > 100 µM | HCT-116 > 100 µM | RPMI-8226 > 100 µM | M14 > 100 µM | ACHN > 100 µM | HOP-92 > 100 µM | CAKI-1 > 100 µM | MOLT-4 > 100 µM | 786-0 > 100 µM | COLO 205 > 100 µM | NCI-H23 > 100 µM | SF-539 > 100 µM | SK-MEL-2 > 100 µM | T47D > 100 µM | SK-OV-3 > 100 µM | NCI-H522 > 100 µM

O=C1C=C(Nc2ccc(Br)cc2)c2ccccc2/C1=N/O
inactive: SF-295 1.54 µM | Hs-578T 3.2 µM | MCF7 4.16 µM | HL-60 13.2 µM | HCT-116 11.4 µM | RPMI-8226 11.6 µM | KM12 2.5 µM | M14 1.63 µM | ACHN 7.31 µM | HOP-92 17.6 µM | CAKI-1 6.52 µM | MOLT-4 11.7 µM | 786-0 9.73 µM | COLO 205 4.78 µM | NCI-H23 1.28 µM | SF-539 9.48 µM | SK-MEL-2 1.5 µM | T47D 13.6 µM | SK-OV-3 12.9 µM | NCI-H522 28.1 µM

O=C(c1cc(Cl)ccc1Cl)N1CCN(C(=O)c2cc(Cl)ccc2Cl)CC1
inactive: SF-295 91 µM | Hs-578T > 100 µM | MCF7 > 100 µM | HL-60 > 100 µM | HCT-116 > 100 µM | RPMI-8226 > 100 µM | KM12 > 100 µM | M14 > 100 µM | ACHN 94.4 µM | HOP-92 67.1 µM | CAKI-1 97.9 µM | MOLT-4 > 100 µM | 786-0 91.2 µM | NCI-H23 > 100 µM | SF-539 > 100 µM | T47D 48.8 µM | NCI-H522 34.4 µM

O=C(NN=C1NCCCN1)c1ccco1
inactive: SF-295 > 100 µM | Hs-578T > 100 µM | MCF7 > 100 µM | HL-60 > 100 µM | HCT-116 > 100 µM | RPMI-8226 > 100 µM | KM12 > 100 µM | M14 > 100 µM | ACHN > 100 µM | HOP-92 > 100 µM | MOLT-4 > 100 µM | 786-0 > 100 µM | COLO 205 > 100 µM | NCI-H23 > 100 µM | SF-539 > 100 µM | SK-MEL-2 > 100 µM | T47D > 100 µM | SK-OV-3 > 100 µM | NCI-H522 > 100 µM

CCOC(=O)c1c(SCC#N)n(-c2ccccc2)c(=S)n(-c2ccccc2)c1=O
inactive: SF-295 32.1 µM | Hs-578T 28.1 µM | MCF7 37.8 µM | HL-60 55.6 µM | HCT-116 43.9 µM | RPMI-8226 35.5 µM | KM12 47 µM | M14 > 100 µM | ACHN 28.1 µM | HOP-92 43.9 µM | CAKI-1 > 100 µM | MOLT-4 9.73 µM | 786-0 53.5 µM | COLO 205 61.7 µM | NCI-H23 45.7 µM | SK-MEL-2 39.5 µM | T47D 44 µM | SK-OV-3 35.9 µM | NCI-H522 34.4 µM

Cc1ccc(S(=O)(=O)N2CCN(S(=O)(=O)c3ccc(C)cc3)CCN(S(=O)(=O)c3ccc(C)cc3)Cc3cc(Br)c(Br)cc3CN(S(=O)(=O)c3ccc(C)cc3)CC2)cc1
inactive: SF-295 > 100 µM | Hs-578T > 100 µM | MCF7 > 100 µM | HL-60 > 100 µM | HCT-116 > 100 µM | RPMI-8226 > 100 µM | KM12 97.7 µM | M14 19.1 µM | ACHN > 100 µM | HOP-92 23.6 µM | CAKI-1 > 100 µM | MOLT-4 > 100 µM | 786-0 > 100 µM | COLO 205 > 100 µM | NCI-H23 > 100 µM | SF-539 > 100 µM | T47D > 100 µM | SK-OV-3 > 100 µM | NCI-H522 52 µM

COC(=O)c1cc(C#N)[nH]c1-c1ccsc1
inactive: SF-295 > 100 µM | Hs-578T > 100 µM | MCF7 10 µM | HL-60 18.2 µM | HCT-116 > 100 µM | RPMI-8226 22.5 µM | KM12 > 100 µM | M14 > 100 µM | ACHN 85.7 µM | HOP-92 > 100 µM | CAKI-1 51.2 µM | MOLT-4 8.63 µM | 786-0 > 100 µM | COLO 205 > 100 µM | NCI-H23 > 100 µM | SK-MEL-2 > 100 µM | T47D 25.1 µM | SK-OV-3 > 100 µM | NCI-H522 87.7 µM

OC(C/C(=N\N=C(/CC(O)(C(F)(F)F)C(F)(F)F)c1ccccc1)c1ccccc1)(C(F)(F)F)C(F)(F)F
inactive: SF-295 6.44 µM | Hs-578T > 10 µM | MCF7 > 10 µM | HL-60 > 10 µM | HCT-116 > 10 µM | RPMI-8226 > 10 µM | KM12 > 10 µM | M14 > 10 µM | ACHN > 10 µM | HOP-92 > 10 µM | CAKI-1 > 10 µM | MOLT-4 > 10 µM | 786-0 > 10 µM | COLO 205 > 10 µM | NCI-H23 > 10 µM | SF-539 > 10 µM | SK-MEL-2 > 10 µM | T47D > 10 µM | SK-OV-3 > 10 µM | NCI-H522 > 10 µM

O=c1oc(-c2ccccc2)c(-c2ccccc2)n1-c1ccc(Br)cc1
inactive: SF-295 28.1 µM | Hs-578T 32.3 µM | MCF7 > 100 µM | HL-60 39.5 µM | HCT-116 49.7 µM | KM12 37.4 µM | M14 > 100 µM | ACHN > 100 µM | HOP-92 35.4 µM | CAKI-1 > 100 µM | MOLT-4 > 100 µM | 786-0 32.4 µM | COLO 205 > 100 µM | NCI-H23 19.8 µM | SF-539 20.6 µM | SK-MEL-2 > 100 µM | T47D 29.4 µM | SK-OV-3 31.1 µM | NCI-H522 17.2 µM
